Test results as given in patent US10441608B2, “Continuous methods for treating liquids and manufacturing certain constituents (e.g., nanoparticles) in liquids, apparatuses and nanoparticles and nanoparticle/liquid solution(s) resulting therefrom” (Clene Nanomedicine, Inc., priority 2009, dated 2019).
Several values for one entry are separate records, joined by “and”; a condition that tells them apart may be missing. Equal entries are not always repeated. Where two headings read alike, the source gives them in different places.

How the values were obtained:
Assay type in all cases: cell-based
[1] = tested on: Trypanosoma b. rhodesiense STIB 900; test: Alamar Blue assay against Human African Trypanosomiasis parasites
Method: Minimum Essential Medium (50 μl) supplemented according to Baltz et al. (1985) with 2-mercaptoethanol and 15% heat-inactivated horse serum was added to each well of a 96-well microtiter plate.
Serial drug dilutions were prepared covering a range from 90 to 0.123 μg/ml.
Then 10^4 bloodstream forms of Trypanosoma b. rhodesiense STIB 900 in 50 μl were added to each well and the plate incubated at 37° C. under a 5% CO2 atmosphere for 72 hours.
10 μl of Alamar Blue (12.5 mg resazurin dissolved in 100 mL distilled water) were then added to each well and incubation continued for a further 2-4 hours.
Then the plates were read with a Spectramax Gemini XS microplate fluorometer (Molecular Devices Cooperation, Sunnyvale, Calif., USA) using an excitation wave length of 536 nm and an emission wave length of 588 nm.
Data were analysed using the software Softmax Pro (Molecular Devices Cooperation, Sunnyvale, Calif., USA). Decrease of fluorescence (=inhibition) was expressed as percentage of the fluorescence of control cultures and plotted against the drug concentrations.
From the sigmoidal inhibition curves the IC50 values were calculated.

[2] = tested on: Gram-Positive and Gram Negative bacteria
[3] = tested on: a variety of fungi; test: Broth microdilution MIC/MID 50 against fungi; conditions: antifungal concentration
Method: The clinical and laboratory standards institute Broth Microdilution Methodology was employed, however, the growth medium used was an “RPMI” medium. Table 22c uses a format similar to that used for Table 22a, however, the test solutions were tested against a variety of fungi.

In the case of `Nc1nc(N)nc(Nc2ccc([As]3SCC(CO)S3)cc2)n1` (stereo not shown) [Melarsoprol], the IC50 ([1]; 72 h, read-out: T.b. rhod. IC/50 Trial I) is reported as 0.003 µg/mL, the IC50 ([1]; 72 h, read-out: T.b. rhod. IC/50 Trial III) is reported as 0.002 µg/mL and the IC50 ([1]; 72 h, read-out: T.b. rhod. IC/50 Trial V) is reported as 0.005 µg/mL. It also gave an IC50 ([1]; read-out: T.b. rhod. IC/50 Avg less 1 ng/ml) of 0.00333 µg/mL.

`CCC[C@@H]1C[C@@H](C(=O)N[C@@H]([C@H]2O[C@H](SC)[C@H](O)[C@@H](O)[C@H]2O)[C@H](C)Cl)N(C)C1` [Clindamycin] was tested, and the “MID/MIC (amount of antibiotic)” value [2] was at most 0.06 µg/mL, the “MID/MIC (amount of antibiotic)” value ([2]; CD01 Clostridium difficile, Brucella broth with 5% LHB, 1 μg/mL Vit K, 1 μg/mL Haemin) was 4 µg/mL and the “MID/MIC (amount of antibiotic)” value ([2]; CD02 Clostridium difficile, Brucella broth with 5% LHB, 1 μg/mL Vit K, 1 μg/mL Haemin) was 2 µg/mL. For the same compound, the “MID/MIC (amount of antibiotic)” value ([2]; CD03 Clostridium difficile, Brucella broth with 5% LHB, 1 μg/mL Vit K, 1 μg/mL Haemin) was 2 µg/mL and 1 µg/mL, the “MID/MIC (amount of antibiotic)” value ([2]; CD04 Clostridium difficile, Brucella broth with 5% LHB, 1 μg/mL Vit K, 1 μg/mL Haemin) was 1 µg/mL and the “MID/MIC (amount of antibiotic)” value ([2]; CD05 Clostridium difficile, Brucella broth with 5% LHB, 1 μg/mL Vit K, 1 μg/mL Haemin) was 1 µg/mL. The “MID/MIC (amount of antibiotic)” value ([2]; CD06 Clostridium difficile, Brucella broth with 5% LHB, 1 μg/mL Vit K, 1 μg/mL Haemin) was 1 µg/mL, the “MID/MIC (amount of antibiotic)” value ([2]; CD07 Clostridium difficile, Brucella broth with 5% LHB, 1 μg/mL Vit K, 1 μg/mL Haemin) was 1 µg/mL and the “MID/MIC (amount of antibiotic)” value ([2]; CD08 Clostridium difficile, Brucella broth with 5% LHB, 1 μg/mL Vit K, 1 μg/mL Haemin) was 0.5 µg/mL and 1 µg/mL. For the same compound, the “MID/MIC (amount of antibiotic)” value ([2]; CD09 Clostridium difficile, Brucella broth with 5% LHB, 1 μg/mL Vit K, 1 μg/mL Haemin) was 1 µg/mL and 2 µg/mL, the “MID/MIC (amount of antibiotic)” value ([2]; GN10 Pseudomonas aeruginosa ATCC27853, antibiotic-susceptible type strain) was 1 µg/mL and the “MID/MIC (amount of antibiotic)” value ([2]; GN32 Acinetobacter baumanii, multi-drug resistant clinical isolate) was 50.06 µg/mL. The “MID/MIC (amount of antibiotic)” value ([2]; P8119035 Citrobacter freundii, resistant clinical isolate) was 4 µg/mL.

For `C[C@@H]1[C@H](O)[C@@H](C)/C=C/C=C/C=C/C=C/C=C/C=C/C=C/[C@H](O[C@@H]2O[C@H](C)[C@@H](O)[C@H](N)[C@@H]2O)C[C@@H]2O[C@](O)(C[C@@H](O)C[C@@H](O)[C@H](O)CC[C@@H](O)C[C@@H](O)CC(=O)O[C@H]1C)C[C@H](O)[C@H]2C(=O)O` [Amphotericin B], the MID/MIC ([3]; ATCC 22019 Candida parapsilosis - 24 hrs) was 0.5 µg/mL, the MID/MIC ([3]; ATCC 22019 Candida parapsilosis - 48 hrs §§ (24 hour read)) was 1 µg/mL and the MID/MIC ([3]; NCPF 118 Trichophyton rubrum 48 hrs §§ (24 hour read)) was 0.5 µg/mL and 1 µg/mL. The MID/MIC ([3]; NCPF 175 Trychophyton interdigitale 72 hrs §§ (24 hour read)) was 2 µg/mL, the MID/MIC ([3]; NCPF 177 *Microsporum canis - 72 hrs }} (required 72 hours incubation)) was 0.12 µg/mL and the MID/MIC ([3]; NCPF 224 Trichophyton mentagrophytes - 48 hrs §§ (24 hour read)) was 2 µg/mL. For the same compound, the MID/MIC ([3]; NCPF 436 *Microsporum audounii - 72 hrs }} (required 72 hours incubation)) was 0.5 µg/mL, the MID/MIC ([3]; NCPF 988 *Microsporum ferrugineum - 72 hrs }} (required 72 hours incubation)) was 1 µg/mL and the MID/MIC ([3]; NCPF 2140 Aspergiflus fumigatus - 48 hrs §§ (24 hour read)) was 2 µg/mL. It also gave an MID/MIC ([3]; NCPF 2175 Aspergillus flavus - 48 hrs §§ (24 hour read)) of 4 µg/mL, an MID/MIC ([3]; NCPF 2634 Rhizopus oligosporus - 24 hrs) of 0.5 µg/mL and an MID/MIC ([3]; NCPF 2715 Penicillium chrysogenum 48 hrs §§ (24 hour read)) of 2 µg/mL. For the same compound, the MID/MIC ([3]; NCPF 2722 Fusarium oxysporum - 48 hrs) was 1 µg/mL, the MID/MIC ([3]; NCPF 2743 Mucor circinelloides - 48 hrs) was 1 µg/mL and the MID/MIC ([3]; NCPF 3309 Candida glabrata - 24 hrs) was 0.5 µg/mL. For the same compound, the MID/MIC ([3]; NCPF 3309 Candida glabrata - 48 hrs) was 1 µg/mL, the MID/MIC ([3]; NCPF 3516 Candida lusitaniae - 24 hrs) was 0.5 µg/mL and the MID/MIC ([3]; NCPF 3516 Candida lusitaniae - 48 hrs §§ (24 hour read)) was 1 µg/mL. For the same compound, the MID/MIC ([3]; NCPF 3853 Trichophyton cutaneum 48 hrs §§ (24 hour read)) was 0.5 µg/mL, the MID/MIC ([3]; NCPF 5011 Epidermophyton floccosum - 48 hrs) was 0.25 µg/mL and the MID/MIC ([3]; NCPF 7075 *Sporothrix schenkii - 72 hrs (required 72 hours incubation)) was 1 µg/mL. For the same compound, the MID/MIC ([3]; NCPF 7147 Alternaria altemata - 48 hrs §§ (24 hour read)) was 1 µg/mL and the MID/MIC ([3]; NIH 2624 Aspergillus terreus - 48 hrs §§ (24 hour read)) was 2 µg/mL.
